Experiments:
[1] = tested on: bioengineered neuronal organoids (BENOs) from human pluripotent stem cells; test: qPCR transcript analysis of neuronal and glia markers in BENOs; format: cell-based; design: PAX6 transcripts: dose or concentration left out as unconfirmed
Protocol: (§1) In initial attempts, single SMAD pathway inhibition (using noggin) was employed to elicit neural induction, along with the addition of retinoic acid (RA). In the present study, it was tested whether dual SMAD signaling pathway inhibition using noggin and SB431542 during the neural induction phase (days 0-8) might further enhance neurogenesis, e.g., at day 28. Accordingly, NCM containing only noggin, or NCM containing noggin and SB431542, were each investigated.
Numerous conventional protocols in the literature employ neurotrophic factors BDNF and GDNF to improve neuronal survival at the differentiation and maturation stages. Therefore, it was tested whether the addition of BDNF (20 ng/ml) and GDNF (10 ng/ml) to NPEM during culture days 10-28 would result in a higher number of maturing neurons by day 28 (FIG. 4). […]
In all protocols, the differentiation was carried out in Neurobasal™ medium supplemented with B27 and N2. hiPS cells were subjected to neuroectoderm induction (days 0-8) under dual SMAD inhibition (noggin & SB431542) and additional retinoic acid (RA) supplementation to mimic signaling that occurs during embryonic neurogenesis. In protocol 2, the proliferative effects of FGF-2 (day 8-15) in neural progenitor cells (NPCs) were tested. In protocol 3, the effect of Notch inhibitor DAPT in neuronal commitment of NPCs (day 15-28) was tested. In protocol 4, the proliferative effects of TGF-beta 1 for glia cells (day 8-28) were tested. In protocol 5, TGF-beta 1 and DAPT treatments were combined in order to test whether development of glia and neurons can be enhanced simultaneously.
In order to assess the neurogenic and gliogenic potential afforded by the different protocols, tissues were collected at days −1, 0, 3, 8, 15, 28 and 40 (3-6 tissues/time point). Since the treatment until day 8 was identical for all protocols, tissues until that time point were only collected from protocol 1. […] Since treatment with DAPT (protocols 3 and 5) was evidently supporting neurogenesis and TGF-beta 1 appeared to support gliogenesis, the time course analysis was extended for protocol 3 (DAPT) and protocol 5 (DAPT and TGF-beta 1).

[2] = tested on: bioengineered neuronal organoids (BENOs) from human pluripotent stem cells; test: whole mount immunofluorescence (neurofilament) analysis of BENOs; format: cell-based
Protocol: as §1
Consequently, it appears advantageous to increase the amount of neural progenitor cells (NPCs) inside the tissue by treating the organoids with FGF-2 (days 8-15). This corresponds to the use of NPEM in the above protocol. To test whether the use of FGF-2 is favorable, tissues (3000 cell/μl) were treated with 10 ng/ml FGF-2 at two different time-points; day −2 to day 0 (before neural induction at the stem cell stage), and day 8 to day 15 at the NPC stage (FIG. 3B).

[3] = tested on: GABAergic network of BENOs (GABAR); test: calcium imaging of BENO neuronal network under GABAergic inhibition; format: cell-based, human; conditions: for synchrony of the same neurons upon inhibitor washout: after picrotoxin 58 μM and saclofen 330 μM; for synchrony of previously spontaneously synchronized neurons under GABAR inhibition: picrotoxin 58 μM and saclofen 330 μM applied together, BENOs days 30-60, n=3, 4 pairs of cells
Protocol: To test neuronal network activity, BENOs (days 30-60) were subjected to calcium imaging under GABAergic inhibition (carried out using picrotoxin, 58 μM; saclofen, 330 μM; n=3). GABAR inhibition led to an asynchrony of previously spontaneously synchronized neurons (4 pairs of cells).

[4] = protocols 3 and 5, DAPT day 15-28, time course
[5] = SB431542 added to noggin during neural induction (days 0-8) vs noggin only, n=4 tissues/group
[6] = BDNF (20 ng/ml) and GDNF (10 ng/ml) added together, culture days 10-28, analysed day 28

In the case of `C[C@H](NC(=O)Cc1cc(F)cc(F)c1)C(=O)NC(C(=O)OC(C)(C)C)c1ccccc1` (stereo partly shown) [DAPT], the PAX6 transcripts ([1]; DAPT added to NDM, day 15-28) is reported as “increase”, the “amount of the neuronal marker GABBR2” value [1, 4] is reported as “significantly increased” and the “amount of the neuronal marker GRIN1” value [1, 4] is reported as “significantly increased”. The “amount of the neuronal marker MAP2” value [1, 4] was “significantly increased” and the “amount of the neuronal marker PAX 6” value [1, 4] was “significantly increased”.

In the case of `NC(=O)c1ccc(-c2nc(-c3ccc4c(c3)OCO4)c(-c3ccccn3)[nH]2)cc1` [SB431542], the “increase of neuronal marker MAP2 (qPCR)” value [1, 5] is reported as 21 fold, the “increase of neuronal marker PAX6 (qPCR)” value [1, 5] is reported as 21 fold and the “amount of maturing neurons (immunofluorescence and PAX6/MAP2 transcripts)” value ([2]; dual SMAD inhibition, noggin and SB431542, days 0-8, vs noggin only, day 28) is reported as “clearly observed to be advantageous”.

In the case of `NCC(CS(=O)(=O)O)c1ccc(Cl)cc1` (stereo not shown) [saclofen], the “synchrony of the same neurons upon inhibitor washout” value [3] is reported as “re-synchronized” and the “synchrony of previously spontaneously synchronized neurons under GABAR inhibition” value [3] is reported as “asynchrony”.

With “FGF-2: member of the fibroblast growth factor family, encoded by the FGF2 gene” the “level of different markers (OCT4, GFAP, PAX6, MAP2, GRIN1, GABBR2) at any time point” value ([1]; protocol 2, FGF-2 day 8-15, time course days -1 to 40) was “did not significantly influence”, the “neurofilament staining, double treatment vs single treatment” value ([2]; 10 ng/ml FGF-2, day -2-0 and days 8-15 vs days 8-15 only) was “did not seem to be advantageous” and the “neurofilament staining, advantage compared to untreated tissues” value ([2]; 10 ng/ml FGF-2, day -2 to day 0 (stem cell stage), read at day 28) was “did not appear to provide any advantage”. The “neuronal network complexity at day 28 (IF whole mount staining of neurofilament)” value ([2]; 10 ng/ml FGF-2, days 8-15) was “more complex neuronal networks” and the “proliferation of the cells including NPCs” value ([2]; 10 ng/ml FGF-2, days 8-15 (NPC stage)) was “markedly induced proliferation”.

For “TGF-beta 1: transforming growth factor beta 1 (Peprotech)”, the “amount of the glia marker GFAP” value ([1]; protocols 4 and 5, TGF-beta 1 day 8-28, by day 40, vs the other 3 protocols) was “higher amounts”.

With picrotoxin the “synchrony of the same neurons upon inhibitor washout” value [3] was “re-synchronized” and the “synchrony of previously spontaneously synchronized neurons under GABAR inhibition” value [3] was “asynchrony”.

B1: GDNF: neurotrophic factor used to improve neuronal survival (protein, UniProt P39905 78-211, looked up)
Glial cell line-derived …: SPDKQMAVLPRRERNRQAAAANPENSRGKGRRGQRGKNRGCVLTAIHLNVTDLGLGYETKEELIFRYCSGSCDAAETTYDKILKNLSRNRRLVSDKVGQACCRPIAFDDDLSFLDDNLVYHILRKHSAKRCGCI
With B1 the “amount of the maturation marker MAP2” value [1, 6] was “do not increase” and the “amount of the neuronal marker PAX 6” value [1, 6] was “do not increase”.

B2: BDNF: neurotrophic factor used to improve neuronal survival (protein, UniProt P23560 129-247, looked up)
Neurotrophic factor BDNF: HSDPARRGELSVCDSISEWVTAADKKTAVDMSGGTVTVLEKVPVSKGQLKQYFYETKCNPMGYTKEGCRGIDKRHWNSQCRTTQSYVRALTMDSKKRIGWRFIRIDTSCVCTLTIKRGR
modifications: Neurotrophic factor BDNF
B2 was tested, and the “amount of the maturation marker MAP2” value [1, 6] was “do not increase” and the “amount of the neuronal marker PAX 6” value [1, 6] was “do not increase”.
